# pEC50: −log10 of the molar value.
# What was measured:
# [1] = system: Sil-15 cells containing a RARE driving a lacZ reporter; experiment: X-Gal-based RA reporter assay (genomic response); format: cell-based; parameters: genomic response Emax (±95% CI): unit not given here; conditions: for genomic response Emax (±95% CI) / pEC50: Sil-15 reporter cells; for genomic response Emax (±95% CI): absorbance at 650 nm; for genomic E max compared with ATRA / genomic EC50 compared with ATRA: nonoverlapping 95% CI; for pEC50: read-out: genomic response EC50 (±95% CI), overnight, 10^–6 to 10^–14 M
# Outline: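 F9-derived Sil-15 cells with DR5 RARE-lacZ, 100,000/well, exposed overnight at 37 °C to retinoids at 10^–6 to 10^–14 M. Fixed, X-gal developed, read at 650 nm; EC50 and Emax from sigmoidal log(agonist)–response fit, mean ± SEM of three experiments.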
# [2] = system: ERK1/2 phosphorylation in SH-SY5Y cells; experiment: ERK1/2 phosphorylation (nongenomic response), AlphaScreen SureFire; format: cell-based, human; conditions: for pEC50: Homo sapiens, read-out: nongenomic response EC50 (±95% CI); for pEC50 / nongenomic response Emax (±95% CI): SH-SY5Y cells, 1 h
# Outline: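 SH-SY5Y cells (100,000/well) were serum-starved for 24 h, then exposed to retinoids in serum-free DMEM for 60 min at 37 °C with 0.1% DMSO final. Phospho-ERK1/2 in lysates was read by AlphaScreen SureFire. Values come from sigmoidal log(agonist)–response fits, as mean ± SEM of three independent experiments run in triplicate.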
# [3] = system: SH-SY5Y cells; experiment: Neurite outgrowth; format: cell-based, human; conditions: 5 days; for fold induction at 0.01 µM: Homo sapiens, SH-SY5Y, 120 h, 10 nM compound, in comparison to nontreated cells, read-out: fold increase in neurite outgrowth
# Outline: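 After 24 h on poly-L-lysine-coated coverslips in DMEM/10% FCS, SH-SY5Y cells received retinoids at 10 μM or 10 nM (final DMSO 0.01 or 0.0001%) for 5 days at 37 °C. Cells fixed and stained for β-III tubulin. Average neurite length per image (total length/neurite number, 10 images per coverslip), mean ± SEM of three experiments.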
smiles,measurement,setting,value
"CC1(C)CCC(C)(C)c2cc(C#Cc3ccc(C(=O)O)c(F)c3)ccc21 [Compound 13, 2-Fluoro-4-[2-(5,5,8,8-tetramethyl-5,6,7,8-tetrahydronaphthalen-2-yl)ethynyl]benzoic Acid]",genomic response Emax (±95% CI),[1],190 (±8.2)
same,genomic E max compared with ATRA,[1],significantly higher E max than ATRA
same,pEC50,[2],8.61
same,nongenomic response Emax (±95% CI),[2],43.4 (±1.81)
same,nongenomic E max compared with ATRA,[2]; nonoverlapping 95% CI,E max values significantly lower than ATRA
same,fold induction at 0.01 µM,[3],1.9
"Cc1sc(-c2ccc(C(=O)O)c(F)c2)nc1-c1cnc2c(n1)C(C)(C)CCC2(C)C [Compound 42, 2-Fluoro-4-[5-methyl-4-(5,5,8,8-tetramethyl-5,6,7,8-tetrahydroquinoxalin-2-yl)-1,3-thiazol-2-yl]benzoic Acid]",genomic E max compared with ATRA,[1],significantly higher E max than ATRA
same,genomic EC50 compared with ATRA,[1],significantly lower EC50 than ATRA
same,pEC50,[1],10.81
same,pEC50,[2],7.90
same,nongenomic response Emax (±95% CI),[2],54.1 (±4.07)
same,fold induction at 0.01 µM,[3],1.7
"Cc1cc2c(cc1C#Cc1ccc(C(=O)O)c(F)c1)C(C)(C)CCC2(C)C [Compound 17, 2-Fluoro-4-[2-(3,5,5,8,8-pentamethyl-5,6,7,8-tetrahydronaphthalen-2-yl)ethynyl]benzoic Acid]",genomic response Emax (±95% CI),[1],170 (±9.35)
same,genomic EC50 compared with ATRA,[1],significantly lower EC50 than ATRA
same,pEC50,[1],9.87
same,pEC50,[2],8.24
same,nongenomic response Emax (±95% CI),[2],44.1 (±2.69)
same,induction of neurite outgrowth compared with ATRA,[3]; 10 nM,induced neurite outgrowth but not significantly compared to ATRA
